Test results taken from the supplement of paper PMC10307832.

How the values were obtained:
Experiment in all cases: relative viability (nuclei count vs DMSO), 5 days (fraction); higher = more cells survive
[1] = compound: C=CC(=O)Nc1cc(-n2c(=O)ccc3cnc4ccc(-c5ccc(NS(C)(=O)=O)cc5)cc4c32)ccc1C [BMX-IN-1] + C[C@]1(O)C[C@@H](c2nc(-c3ccc4ccc(-c5ccccc5)nc4c3)c3c(N)nccn32)C1 [Linsitinib] (partner 1 µM)
How it was run: (§1)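 Lung cancer cell lines, seeded in 1536-well plates, were treated the following day by pin tool with a single drug or with five library-drug doses (not always all listed) in √10 steps on top of a fixed anchor-drug dose. Cells were fixed and nuclei stained in one step after 5 days, and nuclei were counted. Relative viability is the nuclei count for treated wells divided by that for vehicle wells, reported as medians of duplicate plates.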

[2] = compound: C=CC(=O)N1CCC[C@@H](n2nc(-c3ccc(Oc4ccccc4)cc3)c3c(N)ncnc32)C1 [Ibrutinib] + NC(=O)Nc1cc(-c2cccc(F)c2)sc1C(=O)N[C@H]1CCCNC1 [AZD7762] (partner 0.2 µM)
How it was run: as §1

[3] = compound: C=CC(=O)N1CCC[C@@H](n2nc(-c3ccc(Oc4ccccc4)cc3)c3c(N)ncnc32)C1 [Ibrutinib] + Nc1nc2[nH]cc(CCc3ccc(C(=O)N[C@@H](CCC(=O)O)C(=O)O)cc3)c2c(=O)[nH]1 [Pemetrexed] (partner 0.2 µM)
How it was run: as §1

[4] = compound: C=CCc1cccc(/C=N/NC(=O)CN2CCN(Cc3ccccc3)CC2)c1O [PAC-1] + CC(=O)Nc1cccc(-n2c(=O)n(C3CC3)c(=O)c3c(Nc4ccc(I)cc4F)n(C)c(=O)c(C)c32)c1 [Trametinib] (partner 0.02 µM)
How it was run: as §1

Cell Line	relative viability ([1]; first compound 0.02 µM)	relative viability ([1]; first compound 0.2 µM)	relative viability ([1]; first compound 0.6325 µM)	relative viability ([1]; first compound 2 µM)	relative viability ([2]; first compound 0.005 µM)	relative viability ([2]; first compound 0.01581 µM)	relative viability ([2]; first compound 0.05 µM)	relative viability ([2]; first compound 0.1581 µM)	relative viability ([2]; first compound 0.5 µM)	relative viability ([3]; first compound 0.005 µM)	relative viability ([3]; first compound 0.01581 µM)	relative viability ([3]; first compound 0.05 µM)	relative viability ([3]; first compound 0.1581 µM)	relative viability ([3]; first compound 0.5 µM)	relative viability ([4]; first compound 0.02 µM)	relative viability ([4]; first compound 0.06325 µM)	relative viability ([4]; first compound 0.2 µM)	relative viability ([4]; first compound 2 µM)
IA-LM	0.701	0.674	0.47	0.6	–	–	–	–	–	–	–	–	–	–	–	–	–	–
LC-2-ad	1.03	0.861	0.823	0.852	0.905	0.801	0.861	0.786	0.599	0.279	0.272	0.274	0.258	0.293	0.933	0.919	0.897	0.954
LCLC-97TM1	0.202	0.166	0.162	0.162	0.276	0.326	0.317	0.268	0.219	0.234	0.208	0.22	0.232	0.249	0.179	0.196	–	0.221
LCLC-103H	1.12	1.06	1.09	1.14	0.829	0.706	0.733	0.835	0.745	0.43	0.467	0.467	0.464	0.544	0.636	0.697	0.708	0.714
LK-2	0.798	0.792	0.696	0.765	0.31	0.513	0.438	0.405	0.25	0.194	0.328	0.263	0.225	0.26	0.758	0.629	0.785	0.791
LOU-NH91	–	0.976	0.993	0.919	0.684	0.701	0.717	0.801	0.754	0.426	0.404	0.449	0.377	0.543	0.776	0.776	0.782	0.817
NCI-H520	1.09	1.2	1.36	1.02	–	–	–	–	–	0.67	0.769	0.666	0.718	0.724	0.747	0.746	0.64	0.797
NCI-H522	–	–	–	–	0.847	0.698	0.683	0.766	0.751	1.12	0.789	0.795	0.925	0.956	0.675	0.915	0.848	0.77
NCI-H661	0.677	0.54	0.5	0.685	–	–	–	–	–	0.868	0.927	0.89	0.902	0.8	0.585	0.591	0.581	0.585
NCI-H727	0.325	0.393	0.261	0.27	0.404	0.664	0.524	0.416	0.555	–	–	–	–	–	0.348	0.394	0.414	0.414
NCI-H1299	1.2	0.986	1.13	1.12	–	–	–	–	–	–	–	–	–	–	–	–	–	–
NCI-H1563	1.16	1.33	1.16	1.18	–	–	–	–	–	0.623	0.812	0.741	0.706	0.657	–	–	–	–
NCI-H1648	–	–	–	–	0.697	0.66	0.673	0.762	0.865	0.796	0.655	0.569	0.961	0.751	0.388	0.525	0.445	0.504
NCI-H1650	–	–	–	–	–	–	–	–	–	0.347	0.308	0.348	0.42	0.287	0.538	0.54	0.335	0.542
NCI-H1703	0.945	0.666	0.712	0.746	–	0.126	–	0.148	0.19	–	–	–	–	–	–	–	–	–
NCI-H2009	1.27	1.27	1.29	1.2	–	–	–	–	–	1.08	1.06	1.16	1.11	1.22	0.295	0.35	0.255	0.234
NCI-H2023	0.798	0.695	0.769	0.726	–	–	–	–	–	0.208	0.219	0.293	0.248	0.396	0.723	0.542	0.47	0.402
NCI-H2170	–	–	–	–	0.699	0.695	0.655	0.769	0.182	0.248	0.266	0.264	0.259	0.21	0.888	0.958	0.932	0.859
NCI-H2228	0.969	0.907	0.848	0.648	–	–	–	–	–	0.33	0.345	0.328	0.397	0.445	0.394	0.889	0.433	0.648
NCI-H2342	–	–	–	–	0.317	0.6	0.499	0.472	0.345	0.455	0.806	0.618	0.723	0.715	1.16	0.816	0.697	0.83
SK-LU-1	1.3	1.15	1.21	1.09	–	–	–	–	–	–	0.975	1.08	1	1.09	0.495	0.481	0.484	0.584
SW 900	–	–	–	–	0.472	0.565	0.597	0.513	0.512	0.456	0.48	0.478	0.482	0.49	–	0.8	0.686	0.817
SW 1573	0.709	0.864	0.825	0.771	–	–	–	–	–	–	0.917	0.968	0.88	1.25	0.492	0.623	0.528	0.625
UMC-11	1.1	1.23	1.13	0.998	–	–	–	–	–	0.87	0.732	0.832	0.824	0.821	0.731	0.742	0.878	0.713
